{
  "source": "patent US10654838B2",
  "about": "“Aminopyridine compounds useful as inhibitors of protein prenylation” (INSTITUT NATIONAL DE LA SANTE ET DE LA RECHERCHE MEDICALE …, priority 2014, dated 2020)",
  "key": {"HDJ2": {"test_system": "HDJ2", "assay": "Western blot analysis of HDJ2 farnesylation", "type": "cell-based, human"}, "HGPS MSCs [1]": {"test_system": "HGPS MSCs", "assay": "Nuclear shape abnormalities (lamin A/C immunostaining)", "type": "cell-based, human", "conditions": "48 h, lamin A/C staining", "procedure": "In the 4-steps protocol, cells were fixed in 4% paraformaldehyde (15 minutes, room temperature) before permeabilization and blocking in PBS supplemented with 0.1% triton X-100 and 1% BSA (Sigma-Aldrich, St. Louis, USA). Primary antibodies were incubated one hour at room temperature in blocking buffer. Antibodies included mouse anti-lamins A/C (clone JOL2, Millipore, Billerica, USA), rabbit anti-prelamin A (ANTOO45, Diatheva) and anti-Ki67 (clone Ki-S5, MAB4190, Millipore, Billerica, USA). Cells were stained with the species-specific fluorophore-conjugated secondary antibody (Invitrogen) (one hour, room temperature) and nuclei were visualized with Hoechst 33342."}, "HGPS MSCs [2]": {"test_system": "HGPS MSCs", "assay": "Live cell imaging (cell density)", "type": "cell-based, human", "conditions": "7 days", "procedure": "HGPS MSCs were seeded at 2500 cells per well in 96-well plates and cultivated during 7 days in presence of the drugs. Cell density was monitored using an IncuCyte ZOOM microscope (Essen Bioscience). Each value corresponds to the mean of cell densities of four pictures taken in three independent wells."}, "HMGCR": {"biological_target": "T1, HMGCR (Homo sapiens, UniProt P04035)", "T1 construct": "oxidation of NADPH by the catalytic subunit of HMGCR in the presence of the substrate HMG CoA; purchased Sigma-Aldrich", "T1 sequence (P04035 340-888 limits assumed)": "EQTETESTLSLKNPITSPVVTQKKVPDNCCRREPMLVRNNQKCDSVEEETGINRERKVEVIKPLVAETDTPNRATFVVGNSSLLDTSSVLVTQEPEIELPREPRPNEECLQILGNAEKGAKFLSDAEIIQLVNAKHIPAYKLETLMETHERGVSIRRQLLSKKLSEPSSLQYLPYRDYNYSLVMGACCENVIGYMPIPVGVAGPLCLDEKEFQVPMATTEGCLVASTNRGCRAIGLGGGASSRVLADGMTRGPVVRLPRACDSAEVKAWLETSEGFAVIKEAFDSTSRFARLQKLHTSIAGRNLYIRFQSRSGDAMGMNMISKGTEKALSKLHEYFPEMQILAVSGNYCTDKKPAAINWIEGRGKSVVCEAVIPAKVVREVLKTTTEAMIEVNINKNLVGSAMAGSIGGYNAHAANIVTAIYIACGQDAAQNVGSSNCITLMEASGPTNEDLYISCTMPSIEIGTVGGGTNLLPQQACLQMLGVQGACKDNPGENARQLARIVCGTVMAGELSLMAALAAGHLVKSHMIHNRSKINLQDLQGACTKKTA", "assay": "HMGCR colorimetric activity assay", "type": "biochemical", "procedure": "HMGCR activity was measured using GCoA Reductase Assay Kit (Sigma-Aldrich) according to the manufacturer's protocol. The assay is based on the spectrophotometric measurement of the decrease in absorbance at 340 nm, which represents the oxidation of NADPH by the catalytic subunit of HMGCR in the presence of the substrate HMG CoA."}},
  "data": [
    {"smiles": "N#CC(c1ccccn1)c1ccnc(N2CCN(Cc3ccccc3F)CC2)n1", "note": "(stereo not shown) [Mono-AP1, {2-[4-(2-fluoro-benzyl)-piperazin-1-yl]-pyrimidin-4-yl}-pyridin-2-yl-acetonitrile]", "values": [
      {"measurement": "unfarnesylated form of HDJ2", "setting": "HDJ2", "value": "increase of the unfarnesylated form of the protein"},
      {"measurement": "rescue of nuclear shape abnormalities", "setting": "HGPS MSCs [1]", "value": "restoring HGPS MSCs nuclear shape defects at levels not significantly different from the FTI tipifarnib"},
      {"measurement": "cytostatic effect in long term live imaging cultures", "setting": "HGPS MSCs [2]", "value": "less cytostatic than the FTI tipifarnib"},
      {"measurement": "IC50 (μM) HMGCR", "setting": "HMGCR", "value": "No inhibition"}
    ]}
  ]
}
